Laboratory results from publication PMC11233931, “Remodeling tumor‐associated macrophage for anti‐cancer effects by rational design of irreversible inhibition of mitogen‐activated protein kinase‐activated protein kinase 2” (MedComm, 2024).
Like-named read-outs stand apart in the source and are kept apart here.

Columns and labels:
Experiment in all cases: Eurofins kinase selectivity profile against 380 other human recombinant kinases (Table S2)
Type in all cases: biochemical
[1] = biological target: T1, 380 human recombinant protein kinases (Homo sapiens, UniProt P42684); settings: Arg(h), read-out: Inhibition rate
T1 construct: purchased Eurofins (Celle Lévescault)
T1 sequence (P42684 whole entry): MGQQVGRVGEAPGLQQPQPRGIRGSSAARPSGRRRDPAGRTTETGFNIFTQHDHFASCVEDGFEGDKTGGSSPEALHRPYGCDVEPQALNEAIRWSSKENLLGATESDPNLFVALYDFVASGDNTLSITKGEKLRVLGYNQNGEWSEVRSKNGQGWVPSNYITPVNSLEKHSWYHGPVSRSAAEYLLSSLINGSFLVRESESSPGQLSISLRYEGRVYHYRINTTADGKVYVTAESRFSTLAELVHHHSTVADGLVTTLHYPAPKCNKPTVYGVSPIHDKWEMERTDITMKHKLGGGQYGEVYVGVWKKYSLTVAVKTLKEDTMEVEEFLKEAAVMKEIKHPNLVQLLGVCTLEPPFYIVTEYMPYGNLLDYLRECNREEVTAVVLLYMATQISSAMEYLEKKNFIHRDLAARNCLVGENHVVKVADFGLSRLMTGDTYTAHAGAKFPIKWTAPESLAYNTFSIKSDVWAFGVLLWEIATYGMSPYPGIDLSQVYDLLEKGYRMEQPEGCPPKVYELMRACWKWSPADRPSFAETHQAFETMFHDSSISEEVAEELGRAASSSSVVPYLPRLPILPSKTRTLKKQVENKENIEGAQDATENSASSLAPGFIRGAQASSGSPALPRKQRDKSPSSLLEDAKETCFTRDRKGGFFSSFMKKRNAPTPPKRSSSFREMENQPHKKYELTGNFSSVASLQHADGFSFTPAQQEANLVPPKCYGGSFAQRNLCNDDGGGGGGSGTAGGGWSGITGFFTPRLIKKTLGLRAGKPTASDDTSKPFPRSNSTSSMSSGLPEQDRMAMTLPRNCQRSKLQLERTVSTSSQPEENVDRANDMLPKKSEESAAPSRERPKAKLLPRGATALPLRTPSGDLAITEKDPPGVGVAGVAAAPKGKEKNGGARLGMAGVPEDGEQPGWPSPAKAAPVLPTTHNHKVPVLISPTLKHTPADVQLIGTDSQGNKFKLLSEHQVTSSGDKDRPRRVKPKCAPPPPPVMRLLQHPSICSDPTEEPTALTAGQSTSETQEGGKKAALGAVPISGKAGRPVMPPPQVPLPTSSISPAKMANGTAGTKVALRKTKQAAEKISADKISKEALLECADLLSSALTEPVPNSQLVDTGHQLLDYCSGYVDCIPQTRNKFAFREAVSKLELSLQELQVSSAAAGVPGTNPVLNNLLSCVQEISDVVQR
How it was run: (§1)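 Commercial selectivity screen of the test compound against a panel of 380 human recombinant protein kinases, run by an outside contractor at several compound concentrations to check whether its potency was specific for MK2.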

[2] = biological target: T2, 380 human recombinant protein kinases (Homo sapiens, UniProt P51817); settings: PrKX(h), read-out: Inhibition rate
T2 construct: purchased Eurofins (Celle Lévescault)
T2 sequence (P51817 1-358): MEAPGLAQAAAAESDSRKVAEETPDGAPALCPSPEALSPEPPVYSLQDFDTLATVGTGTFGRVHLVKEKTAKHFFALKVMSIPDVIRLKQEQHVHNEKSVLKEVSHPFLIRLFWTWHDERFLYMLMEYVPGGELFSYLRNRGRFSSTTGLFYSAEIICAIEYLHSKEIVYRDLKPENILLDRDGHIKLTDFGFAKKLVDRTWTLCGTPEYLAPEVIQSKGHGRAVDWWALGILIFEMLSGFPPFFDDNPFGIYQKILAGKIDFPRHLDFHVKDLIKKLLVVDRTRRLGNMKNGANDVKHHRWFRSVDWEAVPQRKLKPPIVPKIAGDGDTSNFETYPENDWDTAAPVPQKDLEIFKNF
How it was run: as §1

[3] = biological target: T3, 380 human recombinant protein kinases (Homo sapiens, UniProt Q6P2M8); settings: CaMKIß(h), read-out: Inhibition rate
T3 construct: purchased Eurofins (Celle Lévescault)
T3 sequence (Q6P2M8 whole entry): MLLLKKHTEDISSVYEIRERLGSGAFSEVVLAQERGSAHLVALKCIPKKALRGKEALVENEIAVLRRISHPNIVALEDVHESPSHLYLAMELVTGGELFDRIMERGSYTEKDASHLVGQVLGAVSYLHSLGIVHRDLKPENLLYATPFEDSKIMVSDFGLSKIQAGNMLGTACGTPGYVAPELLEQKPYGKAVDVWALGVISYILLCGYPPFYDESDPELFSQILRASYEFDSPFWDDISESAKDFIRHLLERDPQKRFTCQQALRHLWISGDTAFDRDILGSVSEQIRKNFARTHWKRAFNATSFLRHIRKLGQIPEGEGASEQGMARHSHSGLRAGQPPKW
How it was run: as §1

[4] = biological target: T4, 380 human recombinant protein kinases (Homo sapiens, UniProt P45983); settings: JNK1α1(h), read-out: Inhibition rate
T4 construct: purchased Eurofins (Celle Lévescault)
T4 sequence (P45983 whole entry): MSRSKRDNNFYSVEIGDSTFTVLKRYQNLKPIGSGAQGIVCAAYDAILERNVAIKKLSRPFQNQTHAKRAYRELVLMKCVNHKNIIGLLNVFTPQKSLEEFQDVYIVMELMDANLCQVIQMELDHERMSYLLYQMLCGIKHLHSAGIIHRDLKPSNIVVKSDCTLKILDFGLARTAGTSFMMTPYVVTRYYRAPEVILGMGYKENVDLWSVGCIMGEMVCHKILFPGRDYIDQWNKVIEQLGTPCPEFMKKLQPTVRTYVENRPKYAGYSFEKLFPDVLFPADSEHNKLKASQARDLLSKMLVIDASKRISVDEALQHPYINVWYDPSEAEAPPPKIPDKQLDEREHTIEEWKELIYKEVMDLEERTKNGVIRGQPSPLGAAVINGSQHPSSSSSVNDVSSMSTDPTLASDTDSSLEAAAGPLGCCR
How it was run: as §1

[5] = biological target: T5, 380 human recombinant protein kinases (Homo sapiens, UniProt Q00535); settings: read-out: Inhibition rate; for inhibition at 0.01 µM: 10 nM; for inhibition at 0.1 µM: 100 nM; for inhibition at 1 µM: 1000 nM
T5 construct: purchased Eurofins (Celle Lévescault)
T5 sequence (Q00535 whole entry): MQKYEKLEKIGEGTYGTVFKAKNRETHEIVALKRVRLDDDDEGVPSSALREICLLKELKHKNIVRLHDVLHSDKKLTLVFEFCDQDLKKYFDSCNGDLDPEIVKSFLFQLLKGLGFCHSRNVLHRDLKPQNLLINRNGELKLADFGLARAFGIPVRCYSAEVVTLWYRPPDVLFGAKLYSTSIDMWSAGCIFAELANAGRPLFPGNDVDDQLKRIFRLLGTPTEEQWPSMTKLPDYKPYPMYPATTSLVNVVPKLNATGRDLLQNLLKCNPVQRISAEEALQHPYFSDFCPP
How it was run: as §1

[6] = biological target: T6, 380 human recombinant protein kinases (Homo sapiens, UniProt P00519, Q252H); settings: Abl (Q252H) (h), read-out: Inhibition rate
T6 construct: purchased Eurofins (Celle Lévescault)
How it was run: as §1

[7] = biological target: T7, 380 human recombinant protein kinases (Homo sapiens, UniProt Q9NRH2); settings: SNRK(h), read-out: Inhibition rate (%)
T7 construct: purchased Eurofins (Celle Lévescault)
T7 sequence (Q9NRH2 1-765): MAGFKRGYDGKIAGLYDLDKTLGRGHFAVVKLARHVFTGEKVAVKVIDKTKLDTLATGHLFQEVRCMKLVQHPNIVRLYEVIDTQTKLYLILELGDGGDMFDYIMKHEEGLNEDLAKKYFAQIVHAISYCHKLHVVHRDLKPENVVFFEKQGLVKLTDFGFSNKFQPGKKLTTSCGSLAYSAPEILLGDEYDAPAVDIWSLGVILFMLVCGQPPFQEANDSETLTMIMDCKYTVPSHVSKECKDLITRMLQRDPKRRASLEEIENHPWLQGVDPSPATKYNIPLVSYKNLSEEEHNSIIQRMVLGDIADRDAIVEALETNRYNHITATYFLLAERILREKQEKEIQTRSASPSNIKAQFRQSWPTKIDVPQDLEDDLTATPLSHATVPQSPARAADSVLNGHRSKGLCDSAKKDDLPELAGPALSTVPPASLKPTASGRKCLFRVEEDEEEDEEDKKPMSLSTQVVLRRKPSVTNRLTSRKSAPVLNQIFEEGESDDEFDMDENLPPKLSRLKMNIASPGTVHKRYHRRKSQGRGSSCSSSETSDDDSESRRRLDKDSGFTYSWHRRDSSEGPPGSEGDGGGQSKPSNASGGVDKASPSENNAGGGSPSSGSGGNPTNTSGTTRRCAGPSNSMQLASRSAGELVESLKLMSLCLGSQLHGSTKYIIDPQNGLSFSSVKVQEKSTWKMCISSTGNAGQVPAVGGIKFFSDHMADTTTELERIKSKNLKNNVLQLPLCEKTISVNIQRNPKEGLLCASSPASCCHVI
How it was run: as §1

[8] = biological target: T8, 380 human recombinant protein kinases (Homo sapiens, UniProt P10398); settings: A-Raf(h), read-out: Inhibition rate
T8 construct: purchased Eurofins (Celle Lévescault)
T8 sequence (P10398 1-606): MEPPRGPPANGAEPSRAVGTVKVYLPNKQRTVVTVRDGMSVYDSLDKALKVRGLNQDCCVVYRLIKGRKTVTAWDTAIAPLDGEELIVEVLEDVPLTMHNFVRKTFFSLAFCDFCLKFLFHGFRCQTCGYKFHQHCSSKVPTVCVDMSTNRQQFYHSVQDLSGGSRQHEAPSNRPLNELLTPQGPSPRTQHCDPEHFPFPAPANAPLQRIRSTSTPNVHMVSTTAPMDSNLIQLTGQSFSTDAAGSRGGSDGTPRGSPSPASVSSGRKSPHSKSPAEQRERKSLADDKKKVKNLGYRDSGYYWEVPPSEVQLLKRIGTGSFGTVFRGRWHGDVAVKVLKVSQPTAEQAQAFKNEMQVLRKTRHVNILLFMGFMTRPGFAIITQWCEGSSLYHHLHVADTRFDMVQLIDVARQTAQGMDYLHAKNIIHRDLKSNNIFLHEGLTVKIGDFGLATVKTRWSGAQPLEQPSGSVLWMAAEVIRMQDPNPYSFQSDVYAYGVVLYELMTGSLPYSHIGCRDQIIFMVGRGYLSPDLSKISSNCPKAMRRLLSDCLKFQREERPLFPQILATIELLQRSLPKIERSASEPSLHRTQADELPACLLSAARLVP
How it was run: as §1

**Q.** Which inhibition at 0.01 µM ([1]; 10 nM) does the source give for `C=CC(=O)Nc1cc(-c2cc(-c3cc4c([nH]3)CCNC4=O)ccn2)ccc1OC(F)(F)F` [compound 11] here?
**A.** Its inhibition at 0.01 µM is 1%.

**Q.** What about the inhibition at 0.1 µM ([1]; 100 nM) of the same compound?
**A.** The inhibition at 0.1 µM was 2%.

**Q.** What about the inhibition at 1 µM ([1]; 1000 nM) of the same compound?
**A.** Its inhibition at 1 µM is 6%.

**Q.** What about the inhibition at 0.01 µM ([2]; 10 nM) of the same compound?
**A.** Its inhibition at 0.01 µM is 3%.

**Q.** What about the inhibition at 0.1 µM ([2]; 100 nM) of the same compound?
**A.** Its inhibition at 0.1 µM is 12%.

**Q.** What about the inhibition at 1 µM ([2]; 1000 nM) of the same compound?
**A.** The inhibition at 1 µM was 11%.

**Q.** And the inhibition at 0.01 µM ([3]; 10 nM)?
**A.** The inhibition at 0.01 µM was -6%.

**Q.** And the inhibition at 0.1 µM ([3]; 100 nM)?
**A.** Its inhibition at 0.1 µM is -2%.

**Q.** What about the inhibition at 1 µM ([3]; 1000 nM) of the same compound?
**A.** Its inhibition at 1 µM is -2%.

**Q.** And the inhibition at 0.01 µM ([4]; 10 nM)?
**A.** Its inhibition at 0.01 µM is 2%.

**Q.** What about the inhibition at 0.1 µM ([4]; 100 nM) of the same compound?
**A.** The inhibition at 0.1 µM was 4%.

**Q.** And the inhibition at 1 µM ([4]; 1000 nM)?
**A.** Its inhibition at 1 µM is 21%.

**Q.** What about the inhibition at 0.01 µM ([5]; CDK5/p25(h)) of the same compound?
**A.** The inhibition at 0.01 µM was -6%.

**Q.** What about the inhibition at 0.1 µM ([5]; CDK5/p25(h)) of the same compound?
**A.** The inhibition at 0.1 µM was 2%.

**Q.** What about the inhibition at 1 µM ([5]; CDK5/p25(h)) of the same compound?
**A.** The inhibition at 1 µM was -2%.

**Q.** What about the inhibition at 0.01 µM ([5]; CDK5/p35(h)) of the same compound?
**A.** Its inhibition at 0.01 µM is -7%.

**Q.** And the inhibition at 0.1 µM ([5]; CDK5/p35(h))?
**A.** The inhibition at 0.1 µM was -6%.

**Q.** What about the inhibition at 1 µM ([5]; CDK5/p35(h)) of the same compound?
**A.** The inhibition at 1 µM was 5%.

**Q.** And the inhibition at 0.01 µM ([6]; 10 nM)?
**A.** Its inhibition at 0.01 µM is -6%.

**Q.** And the inhibition at 0.1 µM ([6]; 100 nM)?
**A.** Its inhibition at 0.1 µM is 5%.

**Q.** And the inhibition at 1 µM ([6]; 1000 nM)?
**A.** The inhibition at 1 µM was 27%.

**Q.** What about the inhibition at 0.01 µM ([7]; 10 nM) of the same compound?
**A.** The inhibition at 0.01 µM was 4%.

**Q.** And the inhibition at 0.1 µM ([7]; 100 nM)?
**A.** The inhibition at 0.1 µM was 4%.

**Q.** What about the inhibition at 1 µM ([7]; 1000 nM) of the same compound?
**A.** The inhibition at 1 µM was 9%.

**Q.** What about the inhibition at 0.01 µM ([8]; 10 nM) of the same compound?
**A.** The inhibition at 0.01 µM was 1%.

**Q.** What about the inhibition at 0.1 µM ([8]; 100 nM) of the same compound?
**A.** Its inhibition at 0.1 µM is 15%.

**Q.** What about the inhibition at 1 µM ([8]; 1000 nM) of the same compound?
**A.** Its inhibition at 1 µM is 18%.
